Data on two molecules can be found in US12496288B2, “Vaginal tablet formulation” (Gedea Biotech AB, priority 2019, dated 2025).

For data set [1], the system named is different Candida species. To be noted: WO 2017/174731, WO 2019/068862; cited from earlier work.
The test system of a further data set is Candida albicans. Particulars: preclinical studies; WO 2017/174731; cited from earlier work.
For data set [2] the following is noted: oral doses between 3 g and 50 g; cited from earlier work.
The subject of data set [3] is different Candida species. Put plainly: Biofilm of Candida species. In kind it is cell-based. To be noted: found by the present inventors.
In data set [4] the test system is several strains of bacteria. Put plainly: Biofilm of bacteria. In kind it is cell-based. To be noted: found by the present inventors.
For data set [5] the following is noted: IPCS 1999; 21CFR184.1318; cited from earlier work.
Data set [6] has as its system several strains of bacteria. Particulars: WO 2017/174731, WO 2019/068862; cited from earlier work.

Regarding `O=C1O[C@H](CO)[C@@H](O)[C@H](O)[C@H]1O` [GDL, glucono-δ-lactone], the “presence / formation of biofilm” value in data set [1] is “significantly reduced”. Further, the “Candida albicans present in the hyphal, i.e. the pathogenic form” value in the data set with Candida albicans is on record as “significant reduction”. Also, the signs of toxicity result in data set [2] was “no signs of toxicity”. The formation of biofilm result in data set [3] and in data set [4] was “has an effect on the formation of biofilm” each time.

Take `O=C(O)[C@H](O)[C@@H](O)[C@H](O)[C@H](O)CO` [gluconic acid]: the “presence / formation of biofilm” value in data set [1] is “reduces the presence of biofilm”. Also, the “carcinogenicity, teratogenicity, or genotoxicity” value in data set [5] is “no evidence”. The presence of biofilm entry in data set [6] is “reduces the presence of biofilm”.
